The results in this text go back to BindingDB's records for patent US20260034094 (Kojin Therapeutics, 2026).

A value given as a limit tells only on which side of the number the result lay.

The assay deals with T1, Glutamate--cysteine ligase catalytic subunit (Homo sapiens, UniProt P48506).
T1 sequence (P48506 whole entry): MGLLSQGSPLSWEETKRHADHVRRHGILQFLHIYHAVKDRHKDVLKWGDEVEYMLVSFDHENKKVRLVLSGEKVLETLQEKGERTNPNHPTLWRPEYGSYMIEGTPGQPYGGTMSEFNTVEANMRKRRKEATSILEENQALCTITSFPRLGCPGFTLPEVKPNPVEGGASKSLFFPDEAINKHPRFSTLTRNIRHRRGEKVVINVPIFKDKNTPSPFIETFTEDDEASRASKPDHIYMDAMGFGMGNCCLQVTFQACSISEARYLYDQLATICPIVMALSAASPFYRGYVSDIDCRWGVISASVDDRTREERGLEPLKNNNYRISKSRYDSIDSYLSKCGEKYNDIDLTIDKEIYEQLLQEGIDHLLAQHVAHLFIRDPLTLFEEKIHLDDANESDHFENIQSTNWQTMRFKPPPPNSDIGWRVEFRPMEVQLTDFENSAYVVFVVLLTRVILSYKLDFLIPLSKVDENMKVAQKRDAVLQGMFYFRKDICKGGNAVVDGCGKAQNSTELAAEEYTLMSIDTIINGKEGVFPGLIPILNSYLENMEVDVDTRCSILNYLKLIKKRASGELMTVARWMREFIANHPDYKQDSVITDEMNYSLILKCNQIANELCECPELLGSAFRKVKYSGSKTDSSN
In words: GCL Enzyme Profiling Assay. The method, then:
Compound in pure DMSO was stamped in assay plates (Greiner black 384-well) or appropriate containers using a D300e digital dispenser (TECAN) and the final DMSO concentration was normalized to 1%. A 5 mL, or in the present case, 5 μL mixture of human recombinant GCL (final concentration: 5 nM) and ATP (final concentration: 0.6 mM) was added and the solution was incubated at room temperature (22° C.) for 1 h. […] The reaction was stopped after 1 h or in the present case, 2 h by addition of 5 mL, or in the present case, 5 μL ADP GLO Reagent (Promega). The resulting solution was incubated for 2 h at room temperature. This was then followed by addition of 5 mL, or in the present case, 5 μL ADP GLO Detection. After incubation at room temperature for 30 min, the plates were read on a plate reader (PheraStar) using a luminescence protocol to quantify the GCL enzyme activity from each reaction solution.
What is called IC50 is the point on the concentration scale where inhibition reaches its midpoint. A lower IC50 goes with inhibition by little substance. Consider `N=S(=O)(CCc1cccc(Cl)c1F)CC[C@H](N)C(=O)O` (stereo not given in full) [US20260034094, Compound 28], for which the IC50 was under 20 µM.

Compound `CC(C)(C)CCS(=N)(=O)CC[C@H](N)C(=O)Nc1nccs1` (stereo not given in full) [US20260034094, Compound 121] displayed an IC50 of over 2000 µM.

`N=S(=O)(CCC(c1ccc(-c2ccccc2F)cc1)C(F)(F)F)CC[C@H](N)C(=O)O` (stereo not given in full) [US20260034094, Compound 217] displayed an IC50 of under 20 µM.

The compound `N=S(=O)(CCC(c1ccc(C2CC2)cc1)C(F)(F)F)CC[C@H](N)C(=O)O` (stereo not given in full) [US20260034094, Compound 225] came in with an IC50 of under 20 µM.

The compound `N=S(=O)(CCC(c1ccc(-c2ccc(Br)cc2)cc1)C(F)(F)F)CC[C@H](N)C(=O)O` (stereo not given in full) [US20260034094, Compound 226] came in with an IC50 of under 20 µM.

For the compound `N=S(=O)(CCC(c1ccc(-c2cn[nH]c2)cc1)C(F)(F)F)CC[C@H](N)C(=O)O` (stereo not given in full) [US20260034094, Compound 227], the IC50 is under 20 µM.

`N=S(=O)(CCC(c1ccc(-c2cc[nH]n2)cc1)C(F)(F)F)CC[C@H](N)C(=O)O` (stereo not given in full) [US20260034094, Compound 228]: the IC50 was under 20 µM.

On to `N=S(=O)(CCC(c1ccc(-c2cccc(C(N)=O)c2)cc1)C(F)(F)F)CC[C@H](N)C(=O)O` (stereo not given in full) [US20260034094, Compound 229], for which the IC50 was under 20 µM.

Compound `CNC(=O)c1cccc(-c2ccc(C(CCS(=N)(=O)CC[C@H](N)C(=O)O)C(F)(F)F)cc2)c1` (stereo not given in full) [US20260034094, Compound 230] came in with an IC50 of under 20 µM.

The compound `N=S(=O)(CCC(c1ccc(-c2ccc(C(F)F)cc2)cc1)C(F)(F)F)CC[C@H](N)C(=O)O` (stereo not given in full) [US20260034094, Compound 231] yielded an IC50 of under 20 µM.

Compound `N=S(=O)(CCC(c1ccc(-c2ccccc2O)cc1)C(F)(F)F)CC[C@H](N)C(=O)O` (stereo not given in full) [US20260034094, Compound 235] had an IC50 of under 20 µM.

`CC(C)(O)c1cccc(-c2ccc(C(CCS(=N)(=O)CC[C@H](N)C(=O)O)C(F)(F)F)cc2)c1` (stereo not given in full) [US20260034094, Compound 241] yielded an IC50 of under 20 µM.

`N=S(=O)(CCC(c1ccc(-c2cccnc2)cc1)C(F)(F)F)CC[C@H](N)C(=O)O` (stereo not given in full) [US20260034094, Compound 243] gave an IC50 of under 20 µM.

`N=S(=O)(CCC(c1ccc(-c2ccc(C(N)=O)nc2)cc1)C(F)(F)F)CC[C@H](N)C(=O)O` (stereo not given in full) [US20260034094, Compound 245] yielded an IC50 of under 20 µM.

Compound `Cc1ccc(-c2ccc(C(CCS(=N)(=O)CC[C@H](N)C(=O)O)C(F)(F)F)cc2)cn1` (stereo not given in full) [US20260034094, Compound 246] showed an IC50 of under 20 µM.

`Cc1nc(Cl)ccc1-c1ccc(C(CCS(=N)(=O)CC[C@H](N)C(=O)O)C(F)(F)F)cc1` (stereo not given in full) [US20260034094, Compound 248]: the IC50 is under 20 µM.

As to `CN1CCN(c2ccc(-c3ccc(C(CCS(=N)(=O)CC[C@H](N)C(=O)O)C(F)(F)F)cc3)cn2)CC1` (stereo not given in full) [US20260034094, Compound 249], the IC50 was under 20 µM.

In the case of `N=S(=O)(CCC(c1ccc(-c2cnc(N)nc2)cc1)C(F)(F)F)CC[C@H](N)C(=O)O` (stereo not given in full) [US20260034094, Compound 251], the IC50 is under 20 µM.

In turn, `N=S(=O)(CCC(c1ccc(-c2cnc(C3CC3)nc2)cc1)C(F)(F)F)CC[C@H](N)C(=O)O` (stereo not given in full) [US20260034094, Compound 252] gave an IC50 of under 20 µM.

`N=S(=O)(CCC(c1ccc(-c2cnc3[nH]ccc3c2)cc1)C(F)(F)F)CC[C@H](N)C(=O)O` (stereo not given in full) [US20260034094, Compound 253] returned an IC50 of under 20 µM.

Compound `N=S(=O)(CCC(c1ccc(-c2cnc3[nH]ncc3c2)cc1)C(F)(F)F)CC[C@H](N)C(=O)O` (stereo not given in full) [US20260034094, Compound 254] displayed an IC50 of under 20 µM.

In the case of `N=S(=O)(CCC(c1ccc(-c2ccc3cn[nH]c3c2)cc1)C(F)(F)F)CC[C@H](N)C(=O)O` (stereo not given in full) [US20260034094, Compound 255], the IC50 was under 20 µM.

`N=S(=O)(CCC(c1ccc(-c2ccc(Cl)s2)cc1)C(F)(F)F)CC[C@H](N)C(=O)O` (stereo not given in full) [US20260034094, Compound 256] had an IC50 of under 20 µM.

The compound `N=S(=O)(CCC(c1ccc(-c2ccsc2)cc1)C(F)(F)F)CC[C@H](N)C(=O)O` (stereo not given in full) [US20260034094, Compound 257] returned an IC50 of under 20 µM.

Turning to `N=S(=O)(CCC(c1ccc(-c2ccoc2)cc1)C(F)(F)F)CC[C@H](N)C(=O)O` (stereo not given in full) [US20260034094, Compound 258], the IC50 was under 20 µM.

Consider `N=S(=O)(CCC(c1ccc(C2=CCNCC2)cc1)C(F)(F)F)CC[C@H](N)C(=O)O` (stereo not given in full) [US20260034094, Compound 259], for which the IC50 was under 20 µM.

With `C=C(c1ccc(C(CCS(=N)(=O)CC[C@H](N)C(=O)O)C(F)(F)F)cc1)C(F)(F)F` (stereo not given in full) [US20260034094, Compound 260], the IC50 is under 20 µM.

Regarding `C=Cc1ccc(C(CCS(=N)(=O)CC[C@H](N)C(=O)O)C(F)(F)F)cc1` (stereo not given in full) [US20260034094, Compound 261], the IC50 was under 20 µM.

The compound `C=C(C)c1ccc(C(CCS(=N)(=O)CC[C@H](N)C(=O)O)C(F)(F)F)cc1` (stereo not given in full) [US20260034094, Compound 262] showed an IC50 of under 20 µM.

For `CC(C)(O)c1ccc(C(CCS(=N)(=O)CC[C@H](N)C(=O)O)C(F)(F)F)cc1` (stereo not given in full) [US20260034094, Compound 263], the IC50 was under 20 µM.

As for `COc1ccccc1-c1ccc(C(CCS(=N)(=O)CC[C@H](N)C(=O)O)C(F)(F)F)cc1` (stereo not given in full) [US20260034094, Compound 264], the IC50 is under 20 µM.

Compound `Cc1ccccc1-c1ccc(C(CCS(=N)(=O)CC[C@H](N)C(=O)O)C(F)(F)F)cc1` (stereo not given in full) [US20260034094, Compound 265] displayed an IC50 of under 20 µM.

Consider `CC(C)c1ccccc1-c1ccc(C(CCS(=N)(=O)CC[C@H](N)C(=O)O)C(F)(F)F)cc1` (stereo not given in full) [US20260034094, Compound 266], for which the IC50 is under 20 µM.

`N=S(=O)(CCC(c1ccc(-c2ccccc2C(F)(F)F)cc1)C(F)(F)F)CC[C@H](N)C(=O)O` (stereo not given in full) [US20260034094, Compound 267]: the IC50 is under 20 µM.

Regarding `COc1ccc(-c2ccc(C(CCS(=N)(=O)CC[C@H](N)C(=O)O)C(F)(F)F)cc2)c(Cl)c1` (stereo not given in full) [US20260034094, Compound 268], the IC50 is under 20 µM.

For the compound `N=S(=O)(CCC(c1ccc(-c2ccc(Cl)cc2Cl)cc1)C(F)(F)F)CC[C@H](N)C(=O)O` (stereo not given in full) [US20260034094, Compound 269], the concentration for half-maximal inhibition (IC50) was under 20 µM.

For the compound `N=S(=O)(CCC(c1ccc(-c2ccc(O)cc2Cl)cc1)C(F)(F)F)CC[C@H](N)C(=O)O` (stereo not given in full) [US20260034094, Compound 270], the IC50 was under 20 µM.

`N=S(=O)(CCC(c1ccc(-c2ccc(F)cc2Cl)cc1)C(F)(F)F)CC[C@H](N)C(=O)O` (stereo not given in full) [US20260034094, Compound 271] came in with an IC50 of under 20 µM.

Turning to `C#Cc1ccc(C(CCS(=N)(=O)CC[C@H](N)C(=O)O)C(F)(F)F)cc1` (stereo not given in full) [US20260034094, Compound 272], the IC50 was under 20 µM.

`N=S(=O)(CCC(c1cccc(C#Cc2ccccc2)c1)C(F)(F)F)CC[C@H](N)C(=O)O` (stereo not given in full) [US20260034094, Compound 273] came in with an IC50 of under 20 µM.

In turn, `Cc1cc(Cl)ccc1-c1ccc(C(CCS(=N)(=O)CC[C@H](N)C(=O)O)C(F)(F)F)cc1` (stereo not given in full) [US20260034094, Compound 275] showed an IC50 of under 20 µM.

Consider `N=S(=O)(CCC(c1ccc(-c2ccc(Cl)cc2)cc1)C(F)(F)F)CC[C@H](N)C(=O)O` (stereo not given in full) [US20260034094, Compound 277], for which the IC50 is under 20 µM.

For `Cc1cc(F)ccc1-c1ccc(C(CCS(=N)(=O)CC[C@H](N)C(=O)O)C(F)(F)F)cc1` (stereo not given in full) [US20260034094, Compound 278], the IC50 was under 20 µM.

Turning to `Cc1ccc(-c2ccc(C(CCS(=N)(=O)CC[C@H](N)C(=O)O)C(F)(F)F)cc2)c(Cl)c1` (stereo not given in full) [US20260034094, Compound 279], the IC50 was under 20 µM.

The compound `Cc1ccc(-c2ccc(C(CCS(=N)(=O)CC[C@H](N)C(=O)O)C(F)(F)F)cc2)c(C)c1` (stereo not given in full) [US20260034094, Compound 280] gave an IC50 of under 20 µM.

On to `N=S(=O)(CCC(c1ccc(-c2ccc(F)cc2O)cc1)C(F)(F)F)CC[C@H](N)C(=O)O` (stereo not given in full) [US20260034094, Compound 281], for which the IC50 was under 20 µM.

Consider `N=S(=O)(CCC(c1ccc(-c2ccc(Cl)cc2O)cc1)C(F)(F)F)CC[C@H](N)C(=O)O` (stereo not given in full) [US20260034094, Compound 282], for which the IC50 is under 20 µM.

As for `Cc1cc(Cl)ccc1-c1cccc(C(CCS(=N)(=O)CC[C@H](N)C(=O)O)C(F)(F)F)c1` (stereo not given in full) [US20260034094, Compound 283], the IC50 was under 20 µM.

Consider `Cc1ccc(-c2cccc(C(CCS(=N)(=O)CC[C@H](N)C(=O)O)C(F)(F)F)c2)c(F)c1` (stereo not given in full) [US20260034094, Compound 284], for which the concentration for half-maximal inhibition (IC50) is under 20 µM.

As to `Cc1ccc(-c2cccc(C(CCS(=N)(=O)CC[C@H](N)C(=O)O)C(F)(F)F)c2)cc1` (stereo not given in full) [US20260034094, Compound 285], the IC50 is under 20 µM.
